Laboratory results from ChEMBL document CHEMBL1158594, “Turning off transcription of the bcl-2 gene by stabilizing the bcl-2 promoter quadruplex with quindoline derivatives” (J Med Chem, 2010).
Activity calls are given as the source filed them. No cut-off for these calls is given here.

How the values were obtained:
Nucleic Acid [1] = experiment: Binding affinity to human single-strand oligonucleotide MutPu39 transfected in human HL60 cells assessed as Bcl-2 transcriptional activation at 0.4 uM after 48 hrs by luciferase reporter gene assay relative to untreated MutPu39-construct control; format: cell-based; details: HL-60
Nucleic Acid [2] = experiment: Binding affinity to Bcl-2 promoter quadruplex DNA by surface plasmon resonance assay; format: nucleic-acid assay
HL-60 [3] = experiment: Cell cycle arrest in human HL60 cells assessed as accumulation at sub-G1 phase at 1 uM after 4 days by propidium iodide staining-based flow cytometry; format: functional
Nucleic Acid [4] = experiment: Binding affinity to human single-strand oligonucleotide Pu39 transfected in human HL60 cells assessed as Bcl-2 transcriptional activation at 0.4 uM after 48 hrs by luciferase reporter gene assay relative to untreated Pu39-construct control; format: cell-based; details: HL-60
Nucleic Acid [5] = experiment: Stabilization of single-strand oligonucleotide MidG4 assessed as melting temperature by FRET assay; format: nucleic-acid assay
HL-60 [6] = experiment: Induction of apoptosis in human HL60 cells assessed as PARP cleavage at 1 uM after 4 days by Western blot analysis; format: functional, cell-based
HL-60 [7] = experiment: Cell cycle arrest in human HL60 cells assessed as accumulation at sub-G1 phase at 0.5 uM after 4 days by propidium iodide staining-based flow cytometry; format: functional
HL-60 [8] = experiment: Downregulation of Bcl-2 mRNA expression in human HL60 cells at 0.8 uM by RT-PCR analysis; format: functional
HL-60 [9] = experiment: Induction of apoptosis in human HL60 cells assessed as cleavage of 17 kDa procaspase-3 at 0.1 to 1 uM after 4 days by Western blot analysis; format: functional, cell-based
HL-60 [10] = experiment: Antiproliferative activity against human HL60 cells assessed as viable cells at 1 uM after 4 days by trypan blue exclusion assay; format: functional; details: HL-60, 96 h, read-out: Activity
Nucleic Acid [11] = experiment: Selectivity ratio of Kd for Bcl-2 promoter duplex DNA to Kd for Bcl-2 promoter quadruplex DNA; format: nucleic-acid assay
Nucleic Acid [12] = experiment: Binding affinity to single-strand oligonucleotide MutPu39 assessed as formation of G-quadruplex complex after 3 mins by PCR stop assay; format: nucleic-acid assay
Nucleic Acid [13] = experiment: Binding affinity to human single-strand oligonucleotide MutPu39 transfected in human HL60 cells assessed as reduction of Bcl-2 transcriptional activation at 0.4 uM after 48 hrs by luciferase reporter gene assay; format: cell-based; details: HL-60
HL-60 [14] = experiment: Downregulation of Bcl-2 mRNA expression in human HL60 cells by RT-PCR analysis; format: functional, cell-based
Nucleic Acid [15] = experiment: Binding affinity to human single-strand oligonucleotide MutPu39 transfected in human HL60 cells assessed as Bcl-2 transcriptional activation at 0.4 uM after 48 hrs by luciferase reporter gene assay relative to untreated Pu39-construct control; format: cell-based; details: HL-60
HL-60 [16] = experiment: Cell cycle arrest in human HL60 cells assessed as accumulation at sub-G1 phase at 0.2 uM after 4 days by propidium iodide staining-based flow cytometry; format: functional
HL-60 [17] = experiment: Antiproliferative activity against human HL60 cells at 0.1 to 1 uM after 4 days by trypan blue exclusion assay; format: functional, cell-based
HL-60 [18] = experiment: Induction of apoptosis in human HL60 cells assessed as cleavage of 35 kDa procaspase-3 at 0.1 to 1 uM after 4 days by Western blot analysis; format: functional, cell-based
HL-60 [19] = experiment: Downregulation of Bcl-2 protein expression in human HL60 cells at 0.1 to 1 uM after 4 days by Western blot analysis; format: functional, cell-based
Nucleic Acid [20] = experiment: Binding affinity to single-strand oligonucleotide Pu39 assessed as formation of G-quadruplex complex after 3 mins by PCR stop assay; format: nucleic-acid assay
Nucleic Acid [21] = experiment: Binding affinity to human single-strand oligonucleotide Pu39 transfected in human HL60 cells assessed as reduction of Bcl-2 transcriptional activation at 0.4 uM after 48 hrs by luciferase reporter gene assay; format: cell-based; details: HL-60
Nucleic Acid [22] = experiment: Binding affinity to Bcl-2 promoter duplex DNA by surface plasmon resonance assay; format: nucleic-acid assay
HL-60 [23] = experiment: Downregulation of Bcl-2 protein expression in human HL60 cells at 0.02 to 0.2 uM after 4 days by Western blot analysis; format: functional, cell-based
HL-60 [24] = experiment: Cell cycle arrest in human HL60 cells assessed as accumulation at sub-G1 phase at 0.05 uM after 4 days by propidium iodide staining-based flow cytometry; format: functional
HL-60 [25] = experiment: Downregulation of Bcl-2 mRNA expression in human HL60 cells at 0.2 uM by RT-PCR analysis; format: functional
HL-60 [26] = experiment: Cell cycle arrest in human HL60 cells assessed as accumulation at sub-G1 phase at 0.1 uM after 4 days by propidium iodide staining-based flow cytometry; format: functional
HL-60 [27] = experiment: Antiproliferative activity against human HL60 cells at 0.02 to 0.2 uM after 4 days by trypan blue exclusion assay; format: functional, cell-based
HL-60 [28] = experiment: Induction of apoptosis in human HL60 cells assessed as cleavage of 17 kDa procaspase-3 at 0.02 to 0.2 uM after 4 days by Western blot analysis; format: functional, cell-based
HL-60 [29] = experiment: Induction of apoptosis in human HL60 cells assessed as PARP cleavage at 0.2 uM after 4 days by Western blot analysis; format: functional, cell-based
HL-60 [30] = experiment: Induction of apoptosis in human HL60 cells assessed as cleavage of 35 kDa procaspase-3 at 0.02 to 0.2 uM after 4 days by Western blot analysis; format: functional, cell-based
HL-60 [31] = experiment: Antiproliferative activity against human HL60 cells assessed as viable cells at 0.2 uM after 4 days by trypan blue exclusion assay; format: functional; details: HL-60, 96 h, read-out: Activity

SMILES | Activity (Nucleic Acid [1]) | Kd (Nucleic Acid [2]) | Activity (Nucleic Acid [4]) | Tm (Nucleic Acid [5]) | Selectivity ratio (Nucleic Acid [11]) | IC50 (Nucleic Acid [12]) | inhibition (Nucleic Acid [13]) | Activity (HL-60 [14]) | Activity (Nucleic Acid [15]) | Activity (HL-60 [16]) | IC50 (Nucleic Acid [20]) | inhibition (Nucleic Acid [21]) | Kd (Nucleic Acid [22]) | also measured
CN(C)CCCNc1c2ccccc2nc2c1[nH]c1ccc(F)cc12 | 88.3% | 167 nM | 70.5% | 65.1 °C | 2.9 | > 100000 nM | 12% | Dose-dependent effect | 156% | 3% | 74400 nM | 30% | 482 nM | Activity (HL-60 [3]): 22.3%; Activity (HL-60 [6]): Active; Activity (HL-60 [7]): 6.1%; Activity (HL-60 [8]): 50%; Activity (HL-60 [9]): inactive; viability at 1 µM (HL-60 [10]): < 25%; Activity (HL-60 [17]): Active; Activity (HL-60 [18]): Active; Activity (HL-60 [19]): Active
CN(C)CCCNc1c2ccccc2[n+](C)c2c1[nH]c1ccc(F)cc12.[I-] | 74.6% | 31.8 nM | 51.4% | 76.9 °C | – | 19700 nM | 25% | Dose-dependent effect | 132% | 3.5% | 1110 nM | 50% | 269 nM | Activity (HL-60 [23]): Active; Activity (HL-60 [24]): 5%; Activity (HL-60 [25]): 50%; Activity (HL-60 [26]): 23.8%; Activity (HL-60 [27]): Active; Activity (HL-60 [28]): inactive; Activity (HL-60 [29]): Active; Activity (HL-60 [30]): Active; viability at 0.2 µM (HL-60 [31]): < 25%
OCCNc1c2ccccc2nc2c1[nH]c1ccccc12 | 92.6% | 1500 nM | 84.4% | 51.5 °C | 2.3 | > 100000 nM | – | – | 163% | – | > 100000 nM | – | 3380 nM | –
